Assay results published in patent US6824998B2, “Compounds and methods for detecting tripeptidyl protease I” (University of Iowa Research Foundation, priority 2003, dated 2004).

Target: T1, TPP-1 (Mus musculus, UniProt O89023)
T1 construct: from tissue; host or cells: frozen 10 µm sections of paraformaldehyde-fixed tissues (e.g. kidney) from C57BL/6J mice (Jackson Laboratory)
T1 sequence (O89023 195-562): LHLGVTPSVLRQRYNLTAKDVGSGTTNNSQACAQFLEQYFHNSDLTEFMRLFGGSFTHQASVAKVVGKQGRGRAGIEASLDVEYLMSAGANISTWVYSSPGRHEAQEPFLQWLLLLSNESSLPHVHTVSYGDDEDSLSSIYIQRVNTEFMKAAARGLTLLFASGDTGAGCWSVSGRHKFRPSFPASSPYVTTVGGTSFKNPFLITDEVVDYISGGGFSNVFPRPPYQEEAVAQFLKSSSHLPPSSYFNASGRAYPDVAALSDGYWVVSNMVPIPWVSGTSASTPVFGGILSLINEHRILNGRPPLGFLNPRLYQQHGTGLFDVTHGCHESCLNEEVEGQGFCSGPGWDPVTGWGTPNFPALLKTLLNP
Assay: TPP-1 histochemical staining of frozen sections of murine tissues
Format: biochemical
Details: for Effectiveness of p-NBA and p-AA versus benzaldehyde with regard to precipitate density and color: aldehyde comparison; for Hydrolysis by endogenous TPP-1 in murine tissues / Specificity of TPP-1 detection / background activity: frozen sections of murine tissues
Procedure: C57BL/6J mice (6 to 8 weeks old) were purchased from the Jackson Laboratory (Bar Harbor, Me.). The mice were sacrificed with an overdose of anesthetic and then transcardially perfused with 0.9% (w/v) saline solution, followed by 2% paraformaldehyde in 0.2 M phosphate buffer. The tissues were removed and post-fixed for 2 hours. After fixation, the tissues were cryoprotected by immersion in 25% sucrose and frozen in OCT compound (Sakura Finetek U.S.A., Inc, Torrance, Calif.). Sections (10 μm) were cut with a cryostat and mounted onto gelatin-coated slides.
Sections were embedded in 0.5% celloidin, followed by incubation in substrate solutions. The sections were incubated in substrate solutions containing 1 mM of the compound, 1 mg/mL of benzaldehyde (BA) or p-anisaldehyde (p-AA) or p-nitrobenzaldehyde (p-NBA) in 0.1 M acetate buffer (pH 4.5) at 37° C. for 4 hours. Slides were rinsed and cover-slipped before viewing on a Leica DM RBE microscope equipped with a Spot-RT Digital Camera and associated software. For all experiments, tissue staining was repeated on a minimum of 5 sections/animal per compound. A minimum of three individual animals was tested to confirm consistency of the results.
Five different compounds, compounds 10, 16, 20, 27, and 31, were tested histochemically on frozen sections of murine tissues. The substrates were systematically compared for sensitivity to TPP-1 activity using conditions to control the rate of crystalline formation and diffusion of product.

Compound	Autofluorescence of the final reaction product of TPP-1 histochemical staining (Benzaldehyde)	Color of the final reaction product of TPP-1 histochemical staining (Benzaldehyde)	Effectiveness of p-NBA and p-AA versus benzaldehyde with regard to precipitate density and color	Hydrolysis by endogenous TPP-1 in murine tissues	Specificity of TPP-1 detection / background activity	Autofluorescence of the final reaction product of TPP-1 histochemical staining (p-Anisaldehyde)	Color of the final reaction product of TPP-1 histochemical staining (p-Anisaldehyde)	Autofluorescence of the final reaction product of TPP-1 histochemical staining (p-Nitrobenzaldehyde)	Color of the final reaction product of TPP-1 histochemical staining (p-Nitrobenzaldehyde)	Sensitivity for detecting TPP-1 activity (combination with p-AA, purple precipitates in areas of high endogenous enzyme activity (e.g., kidney))	Effectiveness as histochemical reagent for detecting TPP-1 (particularly when combined with p-anisaldehyde)
C[C@H](NC(=O)[C@@H]1CCCN1C(=O)CN)C(=O)n1nc2c3c(c(Cl)ccc31)C(=O)c1ccccc1-2 [Compound 10, Gly-L-Pro-L-Ala-5-chloro-1-anthra[1,9-cd]pyrozol-6(2H)-one]	Autofluorescent	Yellow-green	more effective than benzaldehyde itself	readily hydrolyzed	low to no background activity	Autofluorescent	Yellow-green	Autofluorescent	Yellow-green		
C[C@H](NC(=O)[C@@H]1CCCN1C(=O)CN)C(=O)NNc1cccc2c1C(=O)c1ccccc1C2=O [Compound 16, Gly-L-Pro-L-Ala-1-anthraquinonylhydrazide]				no evidence of hydrolysis							
NCC(=O)N1CCC[C@H]1C(=O)N[C@@H](CO)C(=O)NNc1cccc2c1C(=O)c1ccccc1C2=O [Compound 20, Gly-L-Pro-L-Ser-1-anthraquinonylhydrazide]		Brown	more effective than benzaldehyde itself	readily hydrolyzed	low to no background activity		Dark Purple		Brown	most sensitive	most effective histochemical reagent
C[C@H](N)C(=O)N[C@@H](C)C(=O)N[C@@H](Cc1ccccc1)C(=O)NNc1cccc2c1C(=O)c1ccccc1C2=O [Compound 27, L-Ala-L-Ala-L-Phe-1-anthraquinonylhydrazide]		Yellow-green	more effective than benzaldehyde itself	readily hydrolyzed	low to no background activity		Yellow-green		Yellow-green		
C[C@H](N)C(=O)N[C@@H](C)C(=O)N[C@H](Cc1ccccc1)C(=O)NNc1cccc2c1C(=O)c1ccccc1C2=O [Compound 31, L-Ala-L-Ala-D-Phe-1-anthraquinonylhydrazide]				no evidence of hydrolysis							
